In patent US20070142306A1, “Strontium-based complexes, pharmaceutical compositions and dietetic products” (MEDESIS PHARMA SA, priority 2003, published 2007):
Several values for one entry are separate records, joined by “and”; a condition that tells them apart may be missing. Identical values can stand only once.

What was measured:
osteoclast = conditions: cited from earlier work
female Wistar rats = assay: Femoral head (epiphyseal) diameter / bone growth after 21 days rectal treatment; assay type: in vivo, rat
Description: (§1) Administration to female Wistar rats weighing 200 g.
Number of animals per group: 6 and 8.
Text complex: NP05 (composition produced according to the invention, in which only the quantity of strontium varies).
(§2) Volume of administration: 2 ml/kg.
(§3) Route of administration: Rectal route.
(§4) Dose frequency: Once a day—every 24 hours.
(§5) Treatment duration: 21 days.
(§6) The animals were sacrificed and the femoral bones were removed, cleaned of their tendinous and muscular attachments, then frozen.
The femoral epiphyseal diameter was measured.

[1] = Assay of strontium in femoral bones by atomic absorption spectrometry; assay type: in vivo, rat; conditions: 3 weeks treatment, 68.2 mg/kg/d
Description: as §1, §2, §3, §4, §5, §6
Strontium was then assayed in the bones by atomic absorption spectrometry.
The assay of strontium in bone was carried out.

osteoblast = conditions: cited from earlier work
rat model = conditions: administration for 8 weeks; cited from earlier work
humans = conditions: in humans; cited from earlier work
postmenopausal women = conditions: 2 mg per day, two years; cited from earlier work
animal = conditions: cited from earlier work

SMILES	osteoclast multiplication (osteoclast)	effect on bone growth (female Wistar rats; 3 weeks treatment, compared with control animals (NP05 also with the strontium chloride group))	Diameter of femoral head, Mean (female Wistar rats; group mean, 68.2 mg/kg strontium metal, rectal, 21 days) [millimeters]	Diameter of femoral head, Femur 1 (female Wistar rats; individual rats, 68.2 mg/kg strontium metal, rectal, once a day, 21 days) [millimeters]	Diameter of femoral head, Femur 2 (female Wistar rats; individual rats, 68.2 mg/kg strontium metal, rectal, once a day, 21 days, 68.2 mg/kg)	strontium incorporation in bone compared with the controls [1]	osteoblast proliferation (osteoblast)	minimum dose stimulating bone growth (rat model)	amount necessary to obtain therapeutic activity (humans) [g/day]	bone alkaline phosphatase (marker of bone formation) (postmenopausal women)	bone mineral density in the lumbar spine (postmenopausal women)	marker of bone resorption (postmenopausal women)	dose required for therapeutic activity in animal studies (animal; as strontium ranelate, corresponding to 68.2 mg of strontium metal) [mg per day]	dose causing toxic effects (osteomalacic bone lysis) (animal; ranelate dose, four times the active dose)
[Cl-].[Cl-].[Sr+2] [Strontium chloride, strontium chloride]	inhibition	no effect	4.01	4	4 millimeters (7×) and 4.1 millimeters	4	stimulation	68.2 mg of strontium (metal)	–	–	–	–	–	–
N#Cc1c(N(CC(=O)[O-])CC(=O)[O-])sc(C(=O)[O-])c1CC(=O)[O-].[Sr+2].[Sr+2] [strontium ranelate]	inhibition	–	–	–	–	–	stimulation	68.2 mg of strontium (metal)	2	significantly increased	significant increase	decreased	200	above 800 mg per day
